Laboratory results: US6835724B2, “Corticoid 17,21-dicarboxylic esters and corticosteroid 17-carboxylic ester 21-carbonic esters, processes for their preparation and pharmaceuticals containing these compounds” (Aventis Pharma Deutschland GmbH, priority 1993, dated 2004)

Assays:
rat croton oil ear edema = assay: Local antiinflammatory effect in rat croton oil ear edema following epicutaneous application; type: in vivo; conditions: for Inhibition in % / x ± s (mg), weight difference of treated and untreated ear disks: 4 h; for x ± s (mg), weight difference of treated and untreated ear disks: TPA irritant, control 21.2 ± 5.1; for local antiinflammatory effect: summary in words
Experimental: 1. Local antiinflammatory effect in rat croton oil ear edema following epicutaneous application […] The left ear remained untreated. […] The corticoids under examination were dissolved in this solution in the given final concentrations. Controls only received the TPA/solvent mixture. The animals were sacrificed using CO2 4 h after the epicutaneous treatment. Disks measuring 8 mm in diameter were punched out of the right (treated) and the left (untreated) ears and weighed immediately.

Carrageenan paw edema = assay: Systemic antiinflammatory effect following subcutaneous administration: Carrageenan paw edema in rats; type: in vivo, rat; conditions: for Increase in volume: 6 hours after carrageenan, control 0.58 ± 0.16; for systemic activity: summary in words
Text: 2 a) Examining for systemic antiinflammatory effect in the “antiinflammatory effect following subcutaneous administration: Carrageenan paw edema in rats” test. The carrageenan paw edema test in rats in accordance with the method described by Winter et al., Proc. Soc. exp. Biol. (New York) 111, 544 (1962) was chosen as the test for the acute systemic antiinflammatory effect. […] Controls were only given sesame oil. The paw volumes are given in ml, x±s.

gluconeogenesis = assay: Systemic effect: gluconeogenesis in adrenalectomized rats; conditions: for Glycogen + glucose mg/100 g of liver: 6 hours, control 11.2 ± 1.7; for effect on new formation of glucose and glycogen: t test against control
Experimental: 2 b) Examining for systemic effect: gluconeogenesis in rats
A sensitive method for detecting systemic effects on carbohydrate metabolism is to examine the gluconeogenic effect of corticosteroids in the adrenalectomized rat.
Three days prior to the experiment, groups of in each case 6 rats are adrenalectomized under pentobarbital anesthesia and provided with 0.9% sodium chloride solution as drinking fluid. Two days later, i.e. 24 hours before initiating the experiment, the feed is removed in order to reduce the glycogen stores in the liver.
On the day of the experiment, the preparations under examination are administered subcutaneously, dissolved in sesame oil (2 ml/kg). Six hours later, the animals are decapitated, and in each case the liver is removed and 1 g thereof is taken up in 5 ml of 0.6 molar perchloric acid. After homogenization, the free glucose is measured in the supernatant from the centrifugation, while the centrifugation sediment (centrifugate; glycogen) is cleaved enzymically with amyloglucosidase, after which the glucose content is also measured in this fraction (Hexokinase method, Boehringer Mannheim).

Structure (SMILES)	Inhibition in % (rat croton oil ear edema; 0.1 mg/ml epicutaneous) [%]	x ± s (mg), weight difference of treated and untreated ear disks (rat croton oil ear edema; 0.1 mg/ml epicutaneous) [mg]	Inhibition in % (rat croton oil ear edema; 0.3 mg/ml epicutaneous) [%]	x ± s (mg), weight difference of treated and untreated ear disks (rat croton oil ear edema; 0.3 mg/ml epicutaneous) [mg]	Inhibition in % (rat croton oil ear edema; 1.0 mg/ml epicutaneous) [%]	x ± s (mg), weight difference of treated and untreated ear disks (rat croton oil ear edema; 1.0 mg/ml epicutaneous) [mg]	local antiinflammatory effect (rat croton oil ear edema)	Increase in volume (Carrageenan paw edema; 0.3 mg/kg s.c.) [mL]	Increase in volume (Carrageenan paw edema; 3.0 mg/kg s.c.) [mL]	systemic activity (Carrageenan paw edema)	Glycogen + glucose mg/100 g of liver (gluconeogenesis; 0.3 mg/kg s.c.)	effect on new formation of glucose and glycogen (gluconeogenesis; 0.3 mg/kg s.c.)	Glycogen + glucose mg/100 g of liver (gluconeogenesis; 3.0 mg/kg s.c.)
C[C@]12C=CC(=O)C=C1CC[C@@H]1[C@@H]2[C@@H](O)C[C@@]2(C)[C@H]1CC[C@]2(OC(=O)c1ccccc1)C(=O)COC(=O)Cc1ccccc1 [Compound I, prednisolone 17-benzoate 21-phenylacetic ester]	76	5.0 ± 3.1	85	3.1 ± 2.5	91	2.0 ± 1.4	strong	0.46 ± 0.19	0.38 ± 0.15	weak	20.4 ± 11.7 n.s. mg/100 g of liver	still do not have any significant effect	96.0 ± 26.2 mg/100 g of liver
CCOC(=O)O[C@]1(C(=O)COC(=O)CC)CC[C@H]2[C@@H]3CCC4=CC(=O)C=C[C@]4(C)[C@H]3[C@@H](O)C[C@@]21C [Prednicarbate, prednisolone 17-ethyl carbonate 21-propionate, reference compound]	75	5.2 ± 3.3	88	2.6 ± 2.4	–	–	–	0.36 ± 0.13	0.09 ± 0.08	–	–	–	–
C[C@H]1C[C@H]2[C@@H]3CCC4=CC(=O)C=C[C@]4(C)[C@@]3(F)[C@@H](O)C[C@]2(C)[C@@]1(OC(=O)c1ccccc1)C(=O)COC(=O)Cc1ccccc1 [Compound II, betamethasone 17-benzoate 21-phenylacetic ester]	67	7.0 ± 3.3	77	4.9 ± 3.3	95	1.1 ± 0.9	strong	0.56 ± 0.09	0.45 ± 0.14	weak	10.8 ± 1.3 n.s. mg/100 g of liver	still do not have any significant effect	81.2 ± 61.7 mg/100 g of liver
